Data from patent publication US20060069132A1, “Azolecarboxamide herbicides” (priority 2004, published 2006).

Columns and labels:
[1] = system: barnyardgrass; test: Test B flooded paddy test; assay type: in vivo, Echinochloa crus-galli; settings: 1000 g ai/ha, scale 0 to 100 (0 no effect, 100 complete control)
Method in brief: (§1)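 Visual control ratings, 0–100 versus untreated controls, taken after 13 to 15 days in the greenhouse. Blackgrass received a postemergence spray at the 1- to 4-leaf stage (2–18 cm); ducksalad, umbrella sedge and barnyardgrass were flooded-paddy treated at 2 leaves.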

[2] = system: giant foxtail; test: Test B pre-/postemergence herbicide test; assay type: in vivo, Setaria faberi
Method in brief: (§2)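 Seeds were planted and treated preemergence with compounds formulated in a non-phytotoxic solvent mixture containing surfactant, while plants at the 1- to 4-leaf stage (2 to 18 cm) received postemergence sprays. Flooded paddy plants were grown to the 2-leaf stage. After 13 to 15 days in a greenhouse, injury was visually rated 0–100 against untreated controls.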

[3] = system: barnyardgrass; test: Test B pre-/postemergence herbicide test; assay type: in vivo, Echinochloa crus-galli
Method in brief: (§3)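 Response was scored visually 13 to 15 days after treatment against untreated greenhouse controls, 0 meaning no effect and 100 complete control. Formulations (solvent mixture plus surfactant) went onto soil after planting, onto foliage of 1- to 4-leaf plants, and onto 2-leaf plants in a flooded paddy set including rice and barnyardgrass.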

[4] = system: redroot pigweed; test: Test A pre-/postemergence herbicide test; assay type: in vivo, Amaranthus retroflexus
Method in brief: (§4)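 Visual injury scores on a 0–100 scale (100 = complete control) taken about ten days post-treatment in greenhouse against untreated controls; dash means no result. Treatments: preemergence soil spray and postemergence spray to runoff on one- to two-leaf plants 2 to 10 cm tall, surfactant-containing formulation.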

[5] = system: blackgrass; test: Test B postemergence herbicide test; assay type: in vivo, Alopecurus myosuroides
Method in brief: as §1

[6] = system: wild oat; test: Test B postemergence herbicide test; assay type: in vivo, Avena fatua
Method in brief: (§5)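 Formulated test chemicals went onto postemergence plants measuring 2 to 18 cm, at one to four leaves. For the paddy assay, species had reached two leaves. Scoring took place 13–15 days later by eye, relative to untreated plants, using 0 for no effect up to 100 for full control.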

[7] = system: morningglory; test: Test B pre-/postemergence herbicide test; assay type: in vivo, Ipomoea coccinea
Method in brief: as §3

[8] = system: velvetleaf; test: Test B pre-/postemergence herbicide test; assay type: in vivo, Abutilon theophrasti
Method in brief: as §2

[9] = system: barnyardgrass; test: Test A pre-/postemergence herbicide test; assay type: in vivo, Echinochloa crus-galli
Method in brief: as §4

[10] = system: small flower umbrella sedge; test: Test B flooded paddy test; assay type: in vivo, Cyperus difformis; settings: 1000 g ai/ha, scale 0 to 100 (0 no effect, 100 complete control)
Method in brief: as §1

[11] = system: large crabgrass; test: Test A pre-/postemergence herbicide test; assay type: in vivo, Digitaria sanguinalis
Method in brief: as §4

[12] = system: pigweed; test: Test B pre-/postemergence herbicide test; assay type: in vivo, Amaranthus retroflexus
Method in brief: as §2

[13] = system: lambsquarters; test: Test B pre-/postemergence herbicide test; assay type: in vivo, Chenopodium album
Method in brief: as §2

[14] = system: giant foxtail; test: Test A pre-/postemergence herbicide test; assay type: in vivo, Setaria faberi
Method in brief: as §4

[15] = system: cocklebur; test: Test B pre-/postemergence herbicide test; assay type: in vivo, Xanthium strumarium
Method in brief: as §3

[16] = system: corn; test: Test B pre-/postemergence herbicide test; assay type: in vivo, Zea mays
Method in brief: as §2

[17] = system: Surinam grass; test: Test B pre-/postemergence herbicide test; assay type: in vivo, Urochloa decumbens
Method in brief: as §2

[18] = system: large crabgrass; test: Test B pre-/postemergence herbicide test; assay type: in vivo, Digitaria sanguinalis
Method in brief: as §2

[19] = system: morningglory; test: Test A pre-/postemergence herbicide test; assay type: in vivo, Ipomoea spp.
Method in brief: as §4

[20] = system: velvetleaf; test: Test A pre-/postemergence herbicide test; assay type: in vivo, Abutilon theophrasti
Method in brief: as §4

[21] = system: wheat; test: Test B postemergence herbicide test; assay type: in vivo, Triticum aestivum; design: key to Wheat plant response rating: 0 = no effect, 100 = complete control
Method in brief: as §5

[22] = system: ducksalad; test: Test B flooded paddy test; assay type: in vivo, Heteranthera limosa; settings: 1000 g ai/ha, scale 0 to 100 (0 no effect, 100 complete control)
Method in brief: as §1

[23] = system: rice; test: Test B flooded paddy test; assay type: in vivo, Oryza sativa; settings: 1000 g ai/ha, scale 0 to 100 (0 no effect, 100 complete control)
Method in brief: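 Visual ratings, 0 (no effect) to 100 (complete control), made versus controls after 13–15 d greenhouse. Paddy plants treated at 2-leaf stage; postemergence plants at 1- to 4-leaf stage, 2–18 cm tall.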

[24] = 125 g ai/ha; 0 = no effect, 100 = complete control; preemergence
[25] = 500 g ai/ha; visual rating 0-100, 0 no effect, 100 complete control; preemergence
[26] = postemergence, 125 g ai/ha; visual rating, scale 0 (no effect) to 100 (complete control)
[27] = postemergence, 500 g ai/ha; visual rating, scale 0 (no effect) to 100 (complete control)
[28] = Postemergence, 500 g ai/ha, 0 to 100 scale, 0 no effect, 100 complete control
[29] = Postemergence, 2000 g ai/ha, 0 to 100 scale, 0 no effect, 100 complete control
[30] = Preemergence, 2000 g ai/ha, visual rating, 0 to 100 scale (0 no effect, 100 complete control)
[31] = preemergence, 500 g ai/ha, visual injury, 0 to 100 scale (0 no effect, 100 complete control)
[32] = 125 g ai/ha; visual rating, scale 0 (no effect) to 100 (complete control); postemergence
[33] = 500 g ai/ha; visual rating, 0 = no effect, 100 = complete control; preemergence
[34] = postemergence, 500 g ai/ha; scale 0 to 100, 0 is no effect, 100 is complete control
[35] = Postemergence, 125 g ai/ha, 0 to 100 scale, 0 no effect, 100 complete control
[36] = preemergence, 125 g ai/ha, visual injury, 0 to 100 scale (0 no effect, 100 complete control)

CC(=O)c1cccc(NC(=O)c2sc(C(C)(C)C)nc2C)c1 [Compound 196]
Barnyardgrass plant response rating ([1]; visual rating, 13 to 15 days): 20
Foxtail, Giant plant response rating (0 to 100 scale) [2, 24]: 0
Plant response rating, Foxtail, Giant [2, 25]: 0
Foxtail, Giant plant response rating [2, 26]: 0
Foxtail, Giant plant response rating [2, 27]: 0
Barnyardgrass plant response rating (0 to 100 scale) [3, 24]: 0
Plant response rating, Barnyardgrass [3, 25]: 40
Barnyardgrass plant response rating [3, 26]: 0
Barnyardgrass plant response rating [3, 27]: 30
Pigweed plant response rating [4, 28]: 0
Plant response rating, Pigweed [4, 29]: 0
Pigweed plant response rating [4, 30]: 15
Pigweed plant response rating [4, 31]: 0
Blackgrass plant response rating [5, 26]: 0
Blackgrass plant response rating [5, 27]: 0
Oat, Wild plant response rating [6, 26]: 0
Oat, Wild plant response rating [6, 27]: 0
Morningglory plant response rating (0 to 100 scale) [7, 24]: 0
Plant response rating, Morningglory [7, 25]: 0
Morningglory plant response rating [7, 26]: 0
Morningglory plant response rating [7, 27]: 0
Velvetleaf plant response rating (0 to 100 scale) [8, 24]: 0
Plant response rating, Velvetleaf [8, 25]: 20
Velvetleaf plant response rating [8, 26]: 0
Velvetleaf plant response rating [8, 27]: 0
Barnyardgrass plant response rating [9, 28]: 0
Plant response rating, Barnyardgrass [9, 29]: 30
Barnyardgrass plant response rating [9, 30]: 55
Barnyardgrass plant response rating [9, 31]: 15
Sedge, Umbrella plant response rating ([10]; visual rating, 13 to 15 days): 30
Crabgrass, Large plant response rating [11, 28]: 0
Plant response rating, Crabgrass, Large [11, 29]: 0
Crabgrass, Large plant response rating [11, 30]: 50
Crabgrass, Large plant response rating [11, 31]: 25
Pigweed plant response rating (0 to 100 scale) [12, 24]: 0
Plant response rating, Pigweed [12, 25]: 0
Pigweed plant response rating [12, 26]: 10
Pigweed plant response rating [12, 27]: 30
Lambsquarters plant response rating (0 to 100 scale) [13, 24]: 0
Plant response rating, Lambsquarters [13, 25]: 0
Lambsquarters plant response rating [13, 26]: 0
Lambsquarters plant response rating [13, 27]: 30
Foxtail, Giant plant response rating [14, 28]: 0
Plant response rating, Foxtail, Giant [14, 29]: 0
Foxtail, Giant plant response rating [14, 30]: 20
Foxtail, Giant plant response rating [14, 31]: 0
Cocklebur plant response rating (0 to 100 scale) [15, 24]: 0
Plant response rating, Cocklebur [15, 25]: 0
Cocklebur plant response rating [15, 26]: 0
Cocklebur plant response rating [15, 27]: 20
Corn plant response rating (0 to 100 scale) [16, 24]: 0
Plant response rating, Corn [16, 25]: 0
Corn plant response rating [16, 26]: 0
Corn plant response rating [16, 27]: 10
Surinam Grass plant response rating (0 to 100 scale) [17, 24]: 0
Plant response rating, Surinam Grass [17, 25]: 0
Surinam Grass plant response rating [17, 26]: 0
Surinam Grass plant response rating [17, 27]: 40
Crabgrass, Large plant response rating (0 to 100 scale) [18, 24]: 0
Plant response rating, Crabgrass, Large [18, 25]: 100
Crabgrass, Large plant response rating [18, 26]: 30
Crabgrass, Large plant response rating [18, 27]: 30
Morningglory plant response rating [19, 28]: 5
Plant response rating, Morningglory [19, 29]: 0
Morningglory plant response rating [19, 30]: 10
Morningglory plant response rating [19, 31]: 0
Velvetleaf plant response rating [20, 28]: 0
Plant response rating, Velvetleaf [20, 29]: 0
Velvetleaf plant response rating [20, 30]: 0
Velvetleaf plant response rating [20, 31]: 0
Wheat plant response rating [21, 26]: 0
Wheat plant response rating [21, 27]: 0
Ducksalad plant response rating ([22]; visual rating, 13 to 15 days): 30
Rice plant response rating ([23]; visual rating, 13 to 15 days): 0

CC(=NO)c1cccc(NC(=O)c2cc(C(C)(C)C)n[nH]2)c1 [Compound 311]
Barnyardgrass plant response rating [1]: 50
Foxtail, Giant plant response rating (0 to 100 scale) [2, 24]: 0
Foxtail, Giant plant response rating [2, 32]: 0
Plant response rating, Foxtail, Giant [2, 33]: 0
Foxtail, Giant plant response rating [2, 34]: 0
Barnyardgrass plant response rating (0 to 100 scale) [3, 24]: 0
Barnyardgrass plant response rating [3, 32]: 0
Plant response rating, Barnyardgrass [3, 33]: 0
Barnyardgrass plant response rating [3, 34]: 0
Pigweed plant response rating [4, 35]: 0
Pigweed plant response rating [4, 28]: 0
Pigweed plant response rating [4, 36]: 0
Pigweed plant response rating [4, 31]: 0
Blackgrass plant response rating [5, 32]: 0
Blackgrass plant response rating [5, 34]: 0
Oat, Wild plant response rating [6, 32]: 0
Oat, Wild plant response rating [6, 34]: 0
Morningglory plant response rating (0 to 100 scale) [7, 24]: 0
Morningglory plant response rating [7, 32]: 0
Plant response rating, Morningglory [7, 33]: 0
Morningglory plant response rating [7, 34]: 0
Velvetleaf plant response rating [8, 32]: 0
Plant response rating, Velvetleaf [8, 33]: 0
Velvetleaf plant response rating [8, 34]: 0
Barnyardgrass plant response rating [9, 35]: 0
Barnyardgrass plant response rating [9, 28]: 10
Barnyardgrass plant response rating [9, 36]: 0
Barnyardgrass plant response rating [9, 31]: 0
Sedge, Umbrella plant response rating [10]: 30
Crabgrass, Large plant response rating [11, 35]: 0
Crabgrass, Large plant response rating [11, 28]: 10
Crabgrass, Large plant response rating [11, 36]: 0
Crabgrass, Large plant response rating [11, 31]: 0
Pigweed plant response rating (0 to 100 scale) [12, 24]: 0
Pigweed plant response rating [12, 32]: 0
Plant response rating, Pigweed [12, 33]: 0
Pigweed plant response rating [12, 34]: 0
Lambsquarters plant response rating (0 to 100 scale) [13, 24]: 0
Lambsquarters plant response rating [13, 32]: 0
Plant response rating, Lambsquarters [13, 33]: 0
Lambsquarters plant response rating [13, 34]: 0
Foxtail, Giant plant response rating [14, 35]: 0
Foxtail, Giant plant response rating [14, 28]: 0
Foxtail, Giant plant response rating [14, 36]: 0
Foxtail, Giant plant response rating [14, 31]: 0
Cocklebur plant response rating (0 to 100 scale) [15, 24]: 0
Cocklebur plant response rating [15, 32]: 0
Plant response rating, Cocklebur [15, 33]: 0
Cocklebur plant response rating [15, 34]: 0
Corn plant response rating (0 to 100 scale) [16, 24]: 0
Corn plant response rating [16, 32]: 0
Plant response rating, Corn [16, 33]: 0
Corn plant response rating [16, 34]: 0
Surinam Grass plant response rating (0 to 100 scale) [17, 24]: 0
Surinam Grass plant response rating [17, 32]: 0
Plant response rating, Surinam Grass [17, 33]: 0
Surinam Grass plant response rating [17, 34]: 0
Crabgrass, Large plant response rating (0 to 100 scale) [18, 24]: 0
Crabgrass, Large plant response rating [18, 32]: 0
Plant response rating, Crabgrass, Large [18, 33]: 0
Crabgrass, Large plant response rating [18, 34]: 0
Morningglory plant response rating [19, 35]: 0
Morningglory plant response rating [19, 28]: 0
Morningglory plant response rating [19, 36]: 0
Morningglory plant response rating [19, 31]: 0
Velvetleaf plant response rating [20, 35]: 0
Velvetleaf plant response rating [20, 28]: 10
Velvetleaf plant response rating [20, 36]: 0
Velvetleaf plant response rating [20, 31]: 0
Wheat plant response rating [21, 32]: 0
Wheat plant response rating [21, 34]: 0
Ducksalad plant response rating [22]: 60
Rice plant response rating [23]: 60
